Entries after “also recorded” stand apart in the source; their conditions may differ. Marks after values point to notes of the source that are not given here.
Experiments:
COX-2 = assay: In vitro colorimetric COX (ovine) inhibitor-screening assay, COX-2; assay type: biochemical; details: ovine COX-2, tested at 50, 100 and 150 µg/mL
Protocol: The test compounds’ ability to suppress COX-1 and COX-2 was evaluated using a colorimetric COX (ovine) inhibitor-screening method (Cayman Chemical, Item Number 760111). In brief, 150 μL of assay buffer, 10 μL of heme, 10 μL of enzyme (COX-1 or COX-2), and 10 μL of compound (1 mg/mL) make up the reaction mixture. In a final volume of […], the test compounds were evaluated at doses of 50, 100, and 150 μg/mL. The cyclooxygenase peroxidase component is used in the experiment. By monitoring the appearance of oxidized N, N, […] (TMPD) at 590 nm, the peroxidase activity is measured […]. […] The following formula was used to determine the % COX inhibition: The COX inhibition activity percentage is equal to (1 − T/C ×100), where T is the inhibitor well’s absorbance and C is the starting activity’s absorbance at 100% without the inhibitor well.

[1] = test system: carrageenan-induced rat paw edema; assay: Carrageenan-induced paw edema; assay type: in vivo; details: compounds 200 mg/kg i.p., indomethacin 10 mg/kg, 4 h after carrageenan
Description: Rats’ carrageenan-induced paw edema model was used to assess the novel synthesized drugs’ anti-inflammatory properties. A total of 180–190 g of male Wistar rats were used for the experiments. In the animal house at Sohag University in Sohag, Egypt, every animal was kept in careful laboratory conditions. After being weighed and divided into six groups at random, the animals are housed for a week to reduce stress and allow them to get used to the laboratory environment. The chemicals that were synthesized were administered intraperitoneally (i.p.) to rats at a dosage of 200 mg/kg. The control group received only vehicles. […] The rats were given a 0.2 mL sub-plantar injection of a 1% (w/v) suspension of carrageenan (made in PBS) in their right hind paw thirty minutes following the injection of synthesized compounds [33]. […] The % inhibition of paw edema was calculated by the following formula [34]:%Inhibition = ((Mean edema of control group − Mean edema of test compound)/(Mean edema of control group)) × 100.

CRP = assay: Serum CRP (ELISA) in carrageenan-injected rats; assay type: in vivo, rat; details: compounds 200 mg/kg i.p., indomethacin 10 mg/kg, mean ± SD
Protocol: (§1) The selective pro-inflammatory cytokines were measured quantitatively using rat-specific Enzyme-Linked Immunosorbent Assay (ELISA) kits from Thermo Scientific™ (Waltham, MA, USA) with CAT. No. ERCRP for CRP; from Elabscience with Cat. No. E-EL-R2856 for TNF-α and with Cat. No. E-EL-R0011 for IL-1α; from CUSABIO, Houston, TX, USA, with Cat. No. CSB-E04640r for IL-6; and from My BioSource Co, USA, with Cat. No. MBS825017 for IL-1β, with Cat. No. MBS753621 for rat cyclooxygenase 1, and with Cat. No. MBS266603 for rat cyclooxygenase 2. Meanwhile, an ovine COX inhibitor-screening in vitro assay (item number 760111) was obtained from Cayman Chemical (Ann Arbor, MI, USA). We purchased malondialdehyde (MDA), glutathione (GSH), and superoxide dismutase (SOD) detection kits from Nanjing Jiancheng Bio-Technology Co. Ltd. (Nanjing, China).
(§2) At the end of the experiments, the rats were subjected to anesthesia with chloroform and then sacrificed. Blood was obtained via heart puncture for biochemical analysis. Following the animals’ sacrifice, the paws were taken out, decalcified, and stored in a 10% formalin solution. To prepare the tissue samples, they were sliced into thicknesses of 5 µm. Hematoxylin and eosin dyes were used to create the histology slides, which were then examined using a photomicroscope (Meiji Techno®, Iruma, Japan) for pathological alterations. The presence of inflammation was documented. Protease/phosphatase inhibitor cocktail in cold phosphate-buffered saline (1:4) (pH 7, 0.01 mol/L) (Cat. No. PPC1010, Sigma-Aldrich) was used to homogenize each rat’s paw piece in a glass homogenizer. After filtering and centrifuging the resultant homogenate for five minutes at 5000× g, oxidative stress biomarkers like GSH, SOD, and MDA were measured. The trials were repeated three times.

IL-1α = assay: Serum IL-1α (ELISA) in carrageenan-injected rats; assay type: in vivo, rat; details: compounds 200 mg/kg i.p., indomethacin 10 mg/kg, mean ± SD
Protocol: as §1, §2

IL-1β = assay: Serum IL-1β (ELISA) in carrageenan-injected rats; assay type: in vivo, rat; details: compounds 200 mg/kg i.p., indomethacin 10 mg/kg, mean ± SD
Protocol: as §1, §2

IL-6 = assay: Serum IL-6 (ELISA) in carrageenan-injected rats; assay type: in vivo, rat; details: compounds 200 mg/kg i.p., indomethacin 10 mg/kg, mean ± SD
Protocol: as §1, §2

TNF-α = assay: Serum TNF-α (ELISA) in carrageenan-injected rats; assay type: in vivo, rat; details: compounds 200 mg/kg i.p., indomethacin 10 mg/kg, mean ± SD
Protocol: as §1, §2

rat cyclooxygenase 1 = assay: COX-1 level in carrageenan-injected paw (ELISA); assay type: in vivo; details: compounds 200 mg/kg i.p., indomethacin 10 mg/kg, mean ± SD
Protocol: as §1, §2

rat cyclooxygenase 2 = assay: COX-2 level in carrageenan-injected paw (ELISA); assay type: in vivo; details: compounds 200 mg/kg i.p., indomethacin 10 mg/kg, mean ± SD
Protocol: as §1, with “Meanwhile, an ovine COX inhibitor-screening in vitro assay (item number 760111) was obtained from Cayman Chemical (Ann Arbor, MI, USA).” left out
as §2

rat paw tissue [2] = assay: Histopathological examination of paw tissue (HE); assay type: in vivo; details: carrageenan-injected paw; compounds 200 mg/kg i.p., indomethacin 10 mg/kg
Description: as §2

[3] = test system: rat paw tissue dermal collagen; assay: Sirius Red staining of dermal collagen in paw tissue; assay type: in vivo; details: carrageenan-injected paw; compounds 200 mg/kg i.p., indomethacin 10 mg/kg
rat paw tissue [4] = assay: Histomorphometry lesion scores of paw tissue sections; assay type: in vivo; details: vs carrageenan group

COc1ccc2c(c1)c(CC(=O)O)c(C)n2C(=O)c1ccc(Cl)cc1 [indomethacin, reference compound]
COX-2 inhibition % (mean activity) (COX-2): 97%
inhibition of paw edema after 4 h [1]: 57.66%
CRP (CRP): 6.23 ± 0.22 ^b ng/mL
IL-1α (IL-1α): 79.28 ± 0.55 ^b pg/mL
IL-1β (IL-1β): 92.86 ± 0.47 ^b pg/mL
IL-6 (IL-6): 18.49 ± 0.27 ^b pg/mL
TNF-α (TNF-α): 11.30 ± 0.30 ^b pg/mL
COX-1 level (rat cyclooxygenase 1): 6.31 ± 0.08 ng/mL
COX-2 level (rat cyclooxygenase 2): 5.11 ± 0.13 ng/mL
histopathological findings of paw tissue (HE) (rat paw tissue [2]): marked edema
dermal collagen content and distribution (Sirius Red) [3]: marked dispersed collagenous fibers; also recorded: markedly dispersed and less organized
inflammation scores (rat paw tissue [4]; Figure 11A): significantly reduced inflammation scores
vascular alteration scores (rat paw tissue [4]; Figure 11C): significantly mitigated vascular alterations
